Results on 36 molecules are retold here after US7208528B1, “Polyamine analogues as therapeutic and diagnostic agents” (MediQuest Therapeutics, Inc., priority 1997, dated 2007).

Data set [1] relates to polyamine transporter (PATr). The data set can be described thus: Polyamine transport (PAT) inhibition assay, 3H-spermidine uptake into MDA-MB-231 cells. It is filed as cell-based, human. The following applies: for pKi: MDA-MB-231 cells. The procedure:
(§1) The radiometric assay uses radiolabeled polyamines such as putrescine, spermidine or spermine, but, due to the low signal, large numbers of adherent or non-adherent cells are required. Additional care is required with spermine due to its nonspecific adsorption to cells and plastics. Cells are mixed with the test compounds and the radiolabeled polyamine to initiate the assay. The cells are incubated for 1–60 minutes, depending on cell type. The assay is terminated by removal of the medium and cooling the plates to 4° C. The cells are then washed with cold medium three times, dissolved in 0.1% sodium dodecyl sulfate and the radioactivity in solution is then determined by scintillation counting. This assay is difficult to scale up to a high throughput procedure due to the low signal from the radiolabel and the handling requirements inherent in procedures with radioactivity.
Therefore, the growth assay and a kinetic transport assay have been used to validate transport inhibition.
The polyamine analogues and derivatives of the invention may be evaluated for their ability to inhibit the uptake of spermidine into MDA cells in culture. Joro spider toxin JSTx-3 is available from Calbiochem; 1-Naphthylacetylspermine is available from RBI. Deoxyspergualin was a generous gift from Paul Gladstone.
300 nM 1202 was the maximum concentration tested in initial rate transport assays.

A further data set relates to MDA-MB-231 cells. The data set can be described thus: Growth assay of MDA-MB-231 cells with ODC inhibitor (DFMO) and 1 μM spermidine. The following applies: for concentration added to culture media at which growth inhibition due to 1202 and DFMO begins to reverse: cells treated with 1202 and DFMO; for pIC50: read-out: IC50 for growth in combination with ODC inhibitor (DFMO), 230 μM DFMO; for pIC50 / IC50 with DFMO, result in words: 1 μM spermidine; for R, ratio of IC50 in the absence of DFMO over IC50 in the presence of DFMO: MDA growth assay.

The subject of data set [2] is MDA breast carcinoma cells. Description: Rescue from DFMO-induced growth inhibition of MDA cells without added polyamines, six day growth assay. Format: cell-based, human. To be noted: absence of polyamines. The procedure:
An additional series of spermine amides were evaluated to extend the structure-activity relationship around this polyamine transport target.
Growth assays were done over a six day period in order to allow for polyamine depletion within cells. When synthesis of polyamines is inhibited, cells compensate by increasing transport of extracellular polyamines into the cell. Over the time course of the assay, polyamines in the culture media may be depleted resulting in growth inhibition.

The subject of a further data set is cancer cells. To be noted: cited from earlier work.
Data set [3] addresses spermidine/spermine acetyltransferase (SSAT) (Homo sapiens, UniProt P21673). Description: Spermidine/spermine acetyltransferase enzymatic activity, 14C-acetyl CoA incorporation. It is filed as biochemical. To be noted: 1 mM spermidine, 1 mM 14C-acetyl CoA, pH 7.8. The procedure:
A study was conducted to determine whether the compositions of the present invention, designed as PAT inhibitors, had other activities on the PA system. Specifically, the ability of DACS to inhibit an enzyme involved in PA recycling was evaluated. The method used was as described in Casero, R. A. et al., Biochem. J. 270:615–620 (1990) hereby incorporated by reference in its entirety. This assay measures the incorporation of ^14C-labeled acetyl CoA into spermidine to form acetylspermidine. Varying concentrations of DACS were added to a reaction mixture containing HEPES buffer, pH 7.8, 1 mM spermidine, and 1 mM ^14C-Acetyl CoA. The product is isolated by binding to phosphocellulose filter paper and the extent of reaction is determined by scintillation counting.

The test system of data set [4] is T-cell acute lymphoblastic leukemias (ALL), glioblastomas, prostate, and colon cell lines. The data set can be described thus: In vitro test in combination with ODC inhibitors against several human cancer cell lines. Format: cell-based. The procedure:
DACS was tested in vitro in combination with ODC inhibitors against several human cancer cell lines. These include T-cell acute lymphoblastic leukemias (ALL), glioblastomas, prostate, and colon cell lines.

In data set [5] the test system is polyamine transporter (PATr). Description: Radiometric PAT assay in A172 glioblastoma cells. Format: cell-based. The following applies: A172 cell line. The method, then:
as §1

SMILES strings stand for the structures. pIC50, pKi: −log10 of the molar value.

Sequence of spermidine/spermine acetyltransferase (SSAT) (P21673 whole entry, species assumed): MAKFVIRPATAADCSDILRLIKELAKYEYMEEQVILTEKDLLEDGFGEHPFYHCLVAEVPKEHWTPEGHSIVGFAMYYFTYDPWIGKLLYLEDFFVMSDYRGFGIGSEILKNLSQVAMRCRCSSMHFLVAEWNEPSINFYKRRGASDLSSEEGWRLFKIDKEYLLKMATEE

Regarding `CC(=O)NCCCNCCCCNCCCN` [Compound 1110, N^1-acetylspermine, reference compound], in data set [1] (Ki versus Km of spermidine), the “greater affinity for the transport system than spermidine” value was 3 fold. The pKi in data set [1] was 6.79.
In the case of `NCCCNCCCCNCCCN` [SPM, spermine, reference compound], the “concentration added to culture media at which growth inhibition due to 1202 and DFMO begins to reverse” value with MDA-MB-231 cells was found to be 1 µM.
For the molecule `NCCCCNCCCN` [spermidine, reference compound], the Km in data set [1] (MDA cells, read-out: Km for the transport system) came to 0.52 µM. Moreover, in the data set on MDA-MB-231 cells, the “concentration added to culture media at which growth inhibition due to 1202 and DFMO begins to reverse” value was determined as 1 µM.
As to `CC(C)C(N)C(=O)NCCCNCCCCNCCCN` [Compound 1157, N^1-Spermine-L-valinyl amide], the pKi in data set [1] was 7.08. Further, the “rescue of cells from growth inhibitory effects of DFMO” value in data set [2] is “not able to rescue”. Further, the pIC50 in the data set on MDA-MB-231 cells was 4.80.
Turning to `NCCCCN(CCCN)CCCNC(=O)CCCc1ccc(N(CCCl)CCCl)cc1` [chlorambucil-spermidine conjugate], the “increase in cytotoxicity compared to chlorambucil alone” value with cancer cells was not above 225 fold.
As to `NCCCNCCCCNCCCNC(=O)C(N)CO` [Compound 1187, N^1-Spermine-L-serinyl amide], the pKi in data set [1] is 7.35. The pIC50 in the data set with MDA-MB-231 cells is 4.59.
As for `NCCCNCCCCNCCCNC(=O)C(N)CC(N)=O` [Compound 1131, N^1-Spermine-L-asparaginyl amide], in data set [1], the pKi is 7.49.
`NCCCNCCCCNCCCNC(=O)C(N)Cc1ccc(O)cc1` [Compound 1173, N^1-Spermine-L-tyrosinyl amide] gave a pKi in data set [1] of 7.11.
Consider `NCCCCCC(=O)NCCCNCCCCNCCCN` [Compound 1094, N^1-[6-aminocaproylspermine]], for which, in data set [1], the pKi is 7.16. The “rescue of cells from growth inhibitory effects of DFMO” value in data set [2] is recorded as “able to rescue”.
With `CN(C)c1cccc2c(S(=O)(=O)NCCCCCC(=O)NCCCNCCCCNCCCN)cccc12` [Compound 4, N^1-[(N^6-dansyl)-6-aminocaproyl]spermine], the “affinity higher than the compound reported by Felschow et al.” value in data set [1] is on record as 100 times. Also, the “increase in binding to the PATr by six carbon linker” value in data set [1] (versus compound without linker) amounted to 10 fold. The “concentration at which compound alone becomes growth inhibitory” value with MDA-MB-231 cells (alone, without ODC inhibitor) amounted to 300 µM. Further, the pIC50 in the data set with MDA-MB-231 cells is 6.22. In the data set on MDA-MB-231 cells (with ODC inhibitor in the presence of polyamines, day 3), the “reduction of cell growth” value is given as 69%. For the same molecule, the “inhibition of SSAT enzymatic activity” value in data set [3] is reported as “inhibited”. Moreover, in data set [4], the “effect against tumor cell lines in vitro” value is given as “effective”.
Consider `N=C(N)NCCCCCCC(=O)NC(O)C(=O)NCCCCNCCCN` (stereo not shown) [Compound 1085, deoxyspergualin, reference compound], for which the pKi in data set [1] is 7.09.
The molecule `CSCCC(N)C(=O)NCCCNCCCCNCCCN` [Compound 1164, N^1-Spermine-L-methionyl amide] gave a pKi in data set [1] of 7.47. Besides, the “IC50 with DFMO, result in words” value with MDA-MB-231 cells was “failed to give effective IC50 values”.
For the molecule `CCC(C)C(N)C(=O)NCCCNCCCCNCCCN` [Compound 1228, N^1-Spermine-L-isoleucinyl amide], the pKi in data set [1] is 6.91. Further, the pIC50 in the data set with MDA-MB-231 cells is 5.05.
In the case of `NCCCNCCCCNCCCNC(=O)C(N)CCCN` [Compound 1224, N^1-Spermine-L-ornithyl amide], the pKi in data set [1] was 7.33. In addition, the “rescue of cells from growth inhibitory effects of DFMO” value in data set [2] was “not able to rescue”. The pIC50 in the data set with MDA-MB-231 cells is 5.52.
For the molecule `NCCCNCCCCNCCCNC(=O)C12CC3CC(CC(C3)C1)C2` [Compound 1235, N^1-spermine 1-adamantylamide], the pKi in data set [1] is 5.94.
`NCCCNCCCCNCCCNC(=O)CN` [Compound 1125, N^1-Spermine-glycinyl amide] gave a pKi in data set [1] of 7.06. For the same molecule, the “rescue of cells from growth inhibitory effects of DFMO” value in data set [2] was “able to rescue”. In addition, the “IC50 with DFMO, result in words” value in the data set on MDA-MB-231 cells is “failed to give effective IC50 values”.
With `CC(C)CC(N)C(=O)NCCCNCCCCNCCCN` [Compound 1230, N^1-Spermine-L-leucinyl amide], the pKi in data set [1] is 7.49. For the same molecule, in the data set with MDA-MB-231 cells, the “IC50 with DFMO, result in words” value is “failed to give effective IC50 values”.
In the case of `NCCCNCCCCNCCCNC(=O)CCN` [Compound 1177, N^1-Spermine-β-alanyl amide], in data set [1], the pKi was 7.15. Besides, the “IC50 with DFMO, result in words” value in the data set with MDA-MB-231 cells is listed as “failed to give effective IC50 values”.
Consider `NCCCNCCCCNCCCNC(=O)CCCCCNS(=O)(=O)c1ccc2oc3ccccc3c2c1` [Compound 6], for which the “R, ratio of IC50 in the absence of DFMO over IC50 in the presence of DFMO” value in the data set with MDA-MB-231 cells is 220.
Molecule `CC(C)(C)C(N)C(=O)NCCCNCCCCNCCCN` [Compound 1194, N^1-Spermine-L-^tbutylglycinyl amide] had a pKi in data set [1] of 6.67. The pIC50 with MDA-MB-231 cells is 4.96.
The molecule `NCCCNCCCCNCCCNC(=O)Cc1cccc2ccccc12` [Compound 1022, 1-Naphthylacetylspermine, reference compound] had a pKi in data set [1] of 6.64. The pIC50 with MDA-MB-231 cells was 5.08.
For `CC(C)(N)C(=O)NCCCNCCCCNCCCN` [Compound 1220, N^1-Spermine-α-aminoisobutyryl amide] the same measures were 6.80 and 5.10.
For `NCCCNCCCCNCCCNC(=O)CCCCCNS(=O)(=O)c1ccc(CNC(=O)c2ccc(Cl)cc2)s1` [Compound 5, N^1-[(N^6-5-(4-chlorobenzamidomethyl)-thiophene-2-sulfonyl)-6-aminocaproyl]spermine], the “R, ratio of IC50 in the absence of DFMO over IC50 in the presence of DFMO” value in the data set with MDA-MB-231 cells came out at 210.
As to `NCCCNCCCCNCCCNC(=O)C(N)Cc1c[nH]c2ccccc12` [Compound 1309, N^1-Spermine-D-tryptophanyl amide], the pKi in data set [1] was 7.59.
Still for that read-out and setting: in the case of `CC(C)(C)OC(=O)NCCCNCCCCNCCCN` [Compound 1163, N^1-boc-spermine] it was 7.08.
On the same count and under the same terms, in the case of `NCCCNCCCCNCCC(=O)NCCCCCNC(=O)[C@H](CC(N)=O)NC(=O)Cc1ccc(O)cc1O` [Compound 1111, reference compound] it was 6.72.
In turn, `NCCCNCCCCNCCCNC(=O)C(N)CC1CCCCC1` [Compound 1227, N^1-Spermine-L-cyclohexanealanyl amide] showed a pKi in data set [1] of 6.62.
On to `CC(C)C(N)C(=O)NCCCNCCCCNCCCN` [Compound 1196, N^1-Spermine-D-valinyl amide], for which, in data set [1], the pKi was 7.32. In addition, the pIC50 in the data set on MDA-MB-231 cells is 5.05.
`NCCCNCCCCNCCCNC(=O)C(N)CCC(N)=O` [Compound 1154, N^1-Spermine-L-glutaminyl amide]: the pKi in data set [1] is 7.33. Further, the “IC50 with DFMO, result in words” value with MDA-MB-231 cells was “failed to give effective IC50 values”.
`CC(O)C(N)C(=O)NCCCNCCCCNCCCN` [Compound 1207, N^1-Spermine-L-threoninyl amide] had a pKi in data set [1] of 6.89. Moreover, the pIC50 in the data set on MDA-MB-231 cells is 5.22.
As for `CN(C)CCCN1c2ccccc2CCc2ccccc21` [Compound 165, imipramine, reference compound], the “type of PAT inhibition” value in data set [1] (A172 and MDA cells) is reported as “non-competitive”. Moreover, the “inhibition of the PAT assay” value in data set [1] (MDA cell line) and in data set [5] was “inhibited” throughout.
Turning to `NCCCCN` [PUT, putrescine, reference compound], the “concentration added to culture media at which growth inhibition due to 1202 and DFMO begins to reverse” value with MDA-MB-231 cells is on record as “greater than 10 μM”.
In data set [1], `NCCCNCCCCNCCCNC(=O)[C@@H]1CCCN1` [Compound 1159, N^1-Spermine-L-prolinyl amide] gave a pKi of 7.42. Further, in data set [2], the “rescue of cells from growth inhibitory effects of DFMO” value was “able to rescue”. Moreover, the pIC50 in the data set on MDA-MB-231 cells is 5.30.
On to `CC(N)C(=O)NCCCNCCCCNCCCN` [Compound 1178, N^1-Spermine-L-alanyl amide], for which the negative logarithm of the Ki (pKi) in data set [1] was 6.61.
As for `NCCCNCCCCNCCCNC(=O)CC12CC3CC(CC(C3)C1)C2` [Compound 1212, N^1-Spermine 2-(1-adamantyl)acetamide], the pIC50 in the data set with MDA-MB-231 cells was 5.05.
`NCCCNCCCCNCCCNC(=O)C(N)Cc1c[nH]c2ccccc12` [Compound 1095, N^1-Spermine-L-tryptophanyl amide] had a pKi in data set [1] of 6.79. Also, the pIC50 in the data set on MDA-MB-231 cells was 4.82.

In general, pKi refers to the Ki on a negative log10 scale, so that one unit is a factor of ten. A lower pKi goes with a large Ki. By Km is commonly meant the substrate concentration at which the rate is half of its maximum. As usually defined, the pIC50 is the negative decadic logarithm of the IC50, by convention in mol/L.
